{"source": "patent US20250213583A1", "about": "“ANTIVIRAL PHARMACEUTICAL COMPOSITION AND USE THEREOF” (priority 2022, published 2025)", "key": {"[1]": {"test_system": "mitochondrial OXPHOS complexes I, II, III, IV, and V", "test": "Mitochondrial OXPHOS complex expression (mRNAseq DEG) in SARS-CoV-2 B.1-infected hACE2-A549 cells", "format": "cell-based, human", "conditions": "SARS-CoV-2 B.1-infected hACE2-A549, MOI 0.1, 30 μM, 24 hpi"}, "SARS-CoV-2 B.1 [2]": {"test_system": "SARS-CoV-2 B.1", "test": "RT-qPCR of viral RNA, Vero E6 cells infected with SARS-CoV-2 B.1", "format": "cell-based"}, "[3]": {"test_system": "Nrf2 signaling pathway (HMOX1, Nqo1)", "test": "Nrf2 signaling pathway gene expression (mRNAseq DEG, RT-qPCR) in SARS-CoV-2 B.1-infected hACE2-A549 cells", "format": "cell-based, human", "conditions": "SARS-CoV-2 B.1-infected hACE2-A549, MOI 0.1, 30 μM, 24 hpi"}, "SARS-CoV-2 B.1 [4]": {"test_system": "SARS-CoV-2 B.1", "test": "Plaque assay, hACE2-A549 cells infected with SARS-CoV-2 B.1", "format": "cell-based", "conditions": "hACE2-A549, MOI=0.1, 30 μM, 24 hpi"}, "hACE2-A549 cells": {"test_system": "hACE2-A549 cells", "test": "Mitochondrial membrane potential by JC-1 staining, SARS-CoV-2 B.1-infected hACE2-A549 cells", "format": "cell-based, human", "conditions": "SARS-CoV-2 B.1-infected hACE2-A549, 30 μM, 24 hpi", "description": "JC-1 is a marker for mitochondrial membrane potential, and appears as a green fluorescent monomer (˜529 nm) at depolarization and abnormal mitochondrial membrane potential. JC-1 was diluted to 10 mM, and the JC-1 solution was treated at a final concentration of 2 μM in serum-free DMEM for 20 minutes at 37° C. and 5% CO2. Control cells were treated with H2O2 for 20 minutes. After JC-1 staining, nuclei were stained using Hoechst 33342 (Thermo Fisher Scientific, cat #62249) for five minutes at room temperature. After each staining step, cells were washed three times with pre-heated PBS and mounted on a glass slide. All steps were carried out with light blocked.\nTo evaluate mitochondrial homeostasis by treatment with Example Compound 1, hACE2-A549 cells and Calu-3 cells were infected with SARS-CoV-2 B.1 virus at MOI=0.1 and 1. After two hours, the cells were treated with Example Compound 1 at 30 μM, and JC-1 and MitoTracker staining of the hACE2A-549 cells and Calu-3 cells was performed at 24 hpi."}, "[5]": {"test_system": "SARS-CoV-2 B.1 nucleocapsid protein", "test": "Western blot of nucleocapsid protein, hACE2-A549 cells infected with SARS-CoV-2 B.1", "format": "cell-based", "conditions": "hACE2-A549, MOI=0.1, 24 hpi", "description": "(§1) Vero E6 cells, Calu-3 cells (1×10^6 cells per well), and hACE2-A549 cells (0.5×10^6 cells per well) were seeded in 6-well plates and placed in an incubator at 37° C. and 5% CO2 conditions overnight. When the cells reached approximately 80% density, they were washed twice with pre-heated phosphate-buffered saline (PBS; Gibco™ cat #70011069), 1 mL of 2% FBS medium was added, and the cells were infected at the following multiplicity of infection [MOI] values at 37° C. for two hours (MOI=0.01 for Vero E6 cells, MOI=0.1 for hACE2-A549 cells, and MOI=1 for Calu-3 cells). The infected plate was shaken every 15 minutes to efficiently distribute the infectious material. After two hours of virus adsorption, Example Compound 1 was administered. Next, the supernatants and cells were harvested at 24 hours post infection (hpi).\n(§2) Cells were lysed using a radioimmunoprecipitation assay (RIPA) buffer (Cell Signaling Technology® cat #9806) and a protease/phosphatase inhibitor mixture (Cell Signaling Technology®, cat #5872). […]\n(§3) The gels were transblotted using polyvinylidene difluoride (PVDF) membranes (Millipore Ltd., cat #617203) at 30 V for 90 minutes. […] The antibody-treated PVDF membrane was detected with a horseradish peroxidase (HRP) substrate (EMD Millipore Corporation) using VILBER (FUSION Solo S instrument). […]"}, "SARS-CoV-2 B.1 [6]": {"test_system": "SARS-CoV-2 B.1", "test": "Plaque assay, Vero E6 cells infected with SARS-CoV-2 B.1", "format": "cell-based", "conditions": "Vero E6, MOI=0.01, 30 μM, 24 hpi"}, "[7]": {"test_system": "SARS-CoV-2 B.1.617.2 (delta)", "test": "microbe, parasite or virus in culture", "format": "cell-based"}, "SARS-CoV-2 B.1 [8]": {"test_system": "SARS-CoV-2 B.1", "test": "RT-qPCR of viral RNA, hACE2-A549 cells infected with SARS-CoV-2 B.1", "format": "cell-based", "conditions": "for pEC50: read-out: EC50 against the SARS-CoV-2 B.1 virus; for inhibited the replication of SARS-CoV-2 B.1 (RT-qPCR): 24 hpi"}, "[9]": {"test_system": "SARS-CoV-2 BA.1 (omicron)", "test": "microbe, parasite or virus in culture", "format": "cell-based"}, "[10]": {"test_system": "SARS-CoV-2 B.1 nucleocapsid protein", "test": "Western blot of nucleocapsid protein, Vero E6 cells infected with SARS-CoV-2 B.1", "format": "cell-based", "conditions": "Vero E6, MOI=0.01, 30, 20, 10, 1 μM, 24 hpi", "description": "as §1, §2, §3"}, "Seoul virus (SEOV)": {"test_system": "Seoul virus (SEOV)", "test": "microbe, parasite or virus in culture", "format": "cell-based"}, "MFN1 and MFN2": {"test_system": "MFN1 and MFN2", "test": "Western blot of mitochondrial fusion factors, SARS-CoV-2 B.1-infected Calu-3 cells", "format": "cell-based", "conditions": "SARS-CoV-2 B.1-infected Calu-3, 24 hpi"}, "Zika virus (ZIKV)": {"test_system": "Zika virus (ZIKV)", "test": "microbe, parasite or virus in culture", "format": "cell-based"}, "[11]": {"test_system": "p-MLKL and cleaved caspase-3", "test": "Western blot of cell death factors, SARS-CoV-2 B.1-infected hACE2-A549 cells", "format": "cell-based, human", "conditions": "SARS-CoV-2 B.1-infected hACE2-A549, MOI 0.1, 30 μM, 48 hpi", "description": "Cells were lysed using a radioimmunoprecipitation assay (RIPA) buffer (Cell Signaling Technology® cat #9806) and a protease/phosphatase inhibitor mixture (Cell Signaling Technology®, cat #5872). The lysed cells were electrophoresed on 12% and 15% acrylamide gels using sodium dodecyl sulfate polyacrylamide gels at 80 to 120 V for 90 minutes.\nas §3, with “minutes. Proteins were transferred to a PVDF membrane and blocked at room temperature for one hour using Tris-buffered saline (TBS) and 0.1% Tween-20 (TBS-T, Bio-Rad Laboratories, Inc., cat #1706531) and 5% skim milk.” for “minutes.”"}, "vaccinia virus (VACV)": {"test_system": "vaccinia virus (VACV)", "test": "microbe, parasite or virus in culture", "format": "cell-based"}, "Calu-3 cells": {"test_system": "Calu-3 cells", "test": "Mitochondrial membrane potential by MitoTracker Orange CMTMRos and IFA, SARS-CoV-2 B.1-infected Calu-3 cells", "format": "cell-based", "conditions": "SARS-CoV-2 B.1-infected Calu-3, 30 μM, 24 hpi", "description": "Mitochondrial membrane potential probes MitoTracker™ Orange CMTMRos (Invitrogen™ cat #M7510) and JC-1 (Thermo Fisher Scientific, cat #T3168) were used to measure the recovery of mitochondrial membrane potential. Mitotracker™MOrange CMTMRos is a fluorescent dye that stains mitochondria in living cells and can be observed under a confocal microscope at a wavelength of 554 to 576 nm.\nCalu-3 cells were seeded on a 4-chamber slide, infected with a virus and treated with Example Compound 1, and then treated with Mitotracker™MOrange CMTMRos at a final concentration of 500 nM in serum-free DMEM for 20 minutes at 37° C. and 5% CO2. Control cells were treated with carbonyl cyanide-p-trifluoromethoxyphenylhydrazone (FCCP) for 20 minutes. All steps were carried out with light blocked, the 4-chamber slide was washed three times with pre-heated PBS, and an immunofluorescence analysis (IFA) was performed.\nTo evaluate mitochondrial homeostasis by treatment with Example Compound 1, hACE2-A549 cells and Calu-3 cells were infected with SARS-CoV-2 B.1 virus at MOI=0.1 and 1. […]\nIn addition, after infecting the Calu-3 cells with SARS-CoV-2, the membrane potential of the infected cells was measured using MitoTracker™ Orange CMTMRos and IFA, and the results are shown in FIG. 5C."}, "[12]": {"test_system": "interferon signaling and pro-inflammatory cytokine genes (Ifnβ, Ifit1, Ifit2, Il-6, Tnfα)", "test": "Inflammatory cytokine gene expression (mRNAseq DEG, RT-qPCR) in SARS-CoV-2 B.1-infected hACE2-A549 cells", "format": "cell-based, human"}, "[13]": {"conditions": "Severe acute respiratory syndrome coronavirus 2"}, "[14]": {"conditions": "SARS-CoV-2 B.1-infected hACE2-A549, 30 μM and 1 μM"}}, "note": "pEC50: −log10 of the molar value."}
{"smiles": "O=S1(=O)CCN(Cc2cc(NC3CCOCC3)c3[nH]c(-c4ccccc4)cc3c2)CC1", "note": "[Example Compound 1, 5-[(1,1-dioxido-4-thiomorpholinyl)methyl]-2-phenyl-N-(tetrahydro-2H-pyran-4-yl)-1H-indol-7-amine]", "values": [{"measurement": "expression of mitochondrial OXPHOS complexes I to V (mRNAseq, DEG)", "setting": "[1]", "result": "up-regulated expression of all five OXPHOS complexes"}, {"measurement": "pEC50", "setting": "SARS-CoV-2 B.1 [2]; Severe acute respiratory syndrome coronavirus 2, Vero C1008, Vero E6, MOI=0.01, 24 hpi, read-out: EC50 against SARS-CoV-2 B.1", "result": 5.96}, {"measurement": "SARS-CoV-2 B.1 virus replication inhibited compared to untreated cells (RT-qPCR)", "setting": "SARS-CoV-2 B.1 [2]; Vero E6, MOI=0.01, 30 μM, 24 hpi", "result": "up to 1,000 times"}, {"measurement": "Nrf2 signaling pathway (mRNAseq, DEG)", "setting": "[3]", "result": "up-regulated"}, {"measurement": "gene expression of HMOX1 and Nqo1 (RT-qPCR), compared to untreated infected cells", "setting": "[3]", "result": "significant increase"}, {"measurement": "infectious particles of SARS-CoV-2 B.1 reduced (plaque assay)", "setting": "SARS-CoV-2 B.1 [4]", "result": 100, "unit": "fold"}, {"measurement": "mitochondrial membrane potential (JC-1 Aggregate, RED) intensity", "setting": "hACE2-A549 cells", "result": "intensity level similar to that of the uninfected cells"}, {"measurement": "expression of SARS-CoV-2 B.1 nucleocapsid protein (Western blot)", "setting": "[5]", "result": "decreased in a dose-dependency"}, {"measurement": "infectious particles of SARS-CoV-2 B.1 reduced compared to untreated cells (plaque assay)", "setting": "SARS-CoV-2 B.1 [6]", "result": "1,000 times"}, {"measurement": "antiviral effect against SARS-CoV-2 B.1.617.2 (delta) (RT-qPCR)", "setting": "[7]", "result": "about 1000 fold"}, {"measurement": "pEC50", "setting": "[7]; [13]", "result": 5.92}, {"measurement": "pEC50", "setting": "SARS-CoV-2 B.1 [8]; Severe acute respiratory syndrome coronavirus 2, hACE2-A549, MOI=0.01, 24 hpi", "result": 5.85}, {"measurement": "pEC50", "setting": "SARS-CoV-2 B.1 [8]; Severe acute respiratory syndrome coronavirus 2, hACE2-A549, MOI=0.1, 24 hpi", "result": 5.15}, {"measurement": "inhibited the replication of SARS-CoV-2 B.1 (RT-qPCR)", "setting": "SARS-CoV-2 B.1 [8]; hACE2-A549, MOI=0.01, 30 µM", "result": "about 100 times"}, {"measurement": "inhibited the replication of SARS-CoV-2 B.1 (RT-qPCR)", "setting": "SARS-CoV-2 B.1 [8]; hACE2-A549, MOI=0.1, 30 μM", "result": "about 100 times"}, {"measurement": "antiviral effect against SARS-CoV-2 BA.1 (omicron) (RT-qPCR)", "setting": "[9]", "result": "~30", "unit": "fold"}, {"measurement": "pEC50", "setting": "[9]; [13]", "result": 5.96}, {"measurement": "expression of SARS-CoV-2 B.1 nucleocapsid protein (Western blot)", "setting": "[10]", "result": "decreased in a dose-dependency"}, {"measurement": "pEC50", "setting": "Seoul virus (SEOV); Orthohantavirus seoulense, Vero C1008, read-out: EC50, SEOV", "result": 5.72}, {"measurement": "reduced the expression level of SEOV (RT-qPCR)", "setting": "Seoul virus (SEOV); Vero E6, 24 hpi", "result": "about 3 times"}, {"measurement": "MFN1 and MFN2 protein level (Western blot)", "setting": "MFN1 and MFN2", "result": "overexpression was suppressed"}, {"measurement": "reduced the expression level of ZIKV (RT-qPCR)", "setting": "Zika virus (ZIKV); Vero E6", "result": "about 16 times"}, {"measurement": "pEC50", "setting": "Zika virus (ZIKV); Zika virus, Vero C1008, Vero E6, 48 hpi", "result": 5.11}, {"measurement": "necrosis-related p-MLKL protein and cell death-related cCaspase 3 protein (Western blot)", "setting": "[11]", "result": "inhibited"}, {"measurement": "pEC50", "setting": "vaccinia virus (VACV); Orthopoxvirus vaccinia, Vero C1008, read-out: EC50, VACV", "result": 5.18}, {"measurement": "reduced the expression level of VACV (RT-qPCR)", "setting": "vaccinia virus (VACV); Vero E6, 24 hpi", "result": "about 15 times"}, {"measurement": "SARS-CoV-2 nucleocapsid protein (IFA)", "setting": "Calu-3 cells", "result": "significant decrease"}, {"measurement": "mitochondrial membrane potential, MitoTracker accumulation", "setting": "Calu-3 cells", "result": "accumulation of MitoTracker"}, {"measurement": "expression of the interferon signaling and pro-inflammatory cytokine genes (mRNAseq, DEG)", "setting": "[12]; SARS-CoV-2 B.1-infected hACE2-A549", "result": "inhibited the expression"}, {"measurement": "expression of interferon-related genes Ifnβ, Ifit1, and Ifit2 (RT-qPCR)", "setting": "[12]; [14]", "result": "significantly down-regulated"}, {"measurement": "induction of pro-inflammatory cytokine genes Il-6 and Tnfα (RT-qPCR)", "setting": "[12]; [14]", "result": "reduced the induction"}]}
